Activity calls are given as the source filed them. The calls are words filed in the database; no cut-off is given here.
How the values were obtained:
[1] = Half life in cynomolgus monkey at 1 mg/kg, iv and 1 mg/kg, po; assay type: ADME, organism-based, Macaca fascicularis; settings: in vivo
[2] = system: MIA PaCa-2; experiment: Antiproliferative activity against human MIAPaCa2 cells incubated for 72 hrs by [3H] thymidine incorporation assay; assay type: functional, cell-based
[3] = Half life in dog at 0.2 mg/kg, iv and 0.2 mg/kg, po; assay type: ADME, organism-based, Canis lupus familiaris; settings: in vivo
[4] = molecular target: T1, Tyrosine-protein kinase JAK3 (Homo sapiens, UniProt P52333); experiment: Binding affinity to JAK3 (unknown origin) assessed as dissociation constant
T1 sequence (P52333 whole entry): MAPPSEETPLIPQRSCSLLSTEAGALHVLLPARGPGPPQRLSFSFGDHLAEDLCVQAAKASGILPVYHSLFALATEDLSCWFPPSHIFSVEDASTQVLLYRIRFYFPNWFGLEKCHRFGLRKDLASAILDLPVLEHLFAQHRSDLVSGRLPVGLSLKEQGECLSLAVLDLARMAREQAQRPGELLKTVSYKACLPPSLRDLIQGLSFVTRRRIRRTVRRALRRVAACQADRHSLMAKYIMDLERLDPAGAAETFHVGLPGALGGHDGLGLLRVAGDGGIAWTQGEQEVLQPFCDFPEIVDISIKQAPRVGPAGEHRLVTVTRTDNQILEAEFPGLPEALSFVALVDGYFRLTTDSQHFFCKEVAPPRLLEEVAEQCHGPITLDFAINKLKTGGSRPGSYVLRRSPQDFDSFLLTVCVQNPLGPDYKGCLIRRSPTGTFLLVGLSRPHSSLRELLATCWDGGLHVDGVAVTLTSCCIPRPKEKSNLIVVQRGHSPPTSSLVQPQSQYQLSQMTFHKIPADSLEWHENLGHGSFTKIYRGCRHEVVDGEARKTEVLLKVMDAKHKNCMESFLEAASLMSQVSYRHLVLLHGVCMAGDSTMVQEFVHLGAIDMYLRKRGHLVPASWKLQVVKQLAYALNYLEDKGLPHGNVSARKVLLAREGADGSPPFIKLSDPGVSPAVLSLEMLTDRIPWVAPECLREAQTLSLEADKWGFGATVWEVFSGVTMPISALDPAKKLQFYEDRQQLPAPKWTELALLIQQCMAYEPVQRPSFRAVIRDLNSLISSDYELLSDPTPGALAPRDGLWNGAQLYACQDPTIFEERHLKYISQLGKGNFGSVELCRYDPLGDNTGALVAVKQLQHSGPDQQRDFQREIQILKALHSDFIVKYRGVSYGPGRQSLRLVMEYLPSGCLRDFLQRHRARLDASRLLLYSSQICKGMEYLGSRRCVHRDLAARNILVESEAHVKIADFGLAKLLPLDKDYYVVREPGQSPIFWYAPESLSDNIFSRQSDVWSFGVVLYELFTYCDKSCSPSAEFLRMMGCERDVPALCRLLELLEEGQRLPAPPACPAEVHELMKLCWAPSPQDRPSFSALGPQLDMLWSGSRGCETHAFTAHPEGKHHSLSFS

[5] = Permeability of the compound in pH 7.4 solution by PAMPA method; assay type: physicochemical; settings: read-out: permeability
[6] = molecular target: T2, Cytochrome P450 1A2 (Homo sapiens, UniProt P05177); experiment: Inhibition of CYP1A2 in human liver microsomes; assay type: ADME
T2 sequence (P05177 whole entry): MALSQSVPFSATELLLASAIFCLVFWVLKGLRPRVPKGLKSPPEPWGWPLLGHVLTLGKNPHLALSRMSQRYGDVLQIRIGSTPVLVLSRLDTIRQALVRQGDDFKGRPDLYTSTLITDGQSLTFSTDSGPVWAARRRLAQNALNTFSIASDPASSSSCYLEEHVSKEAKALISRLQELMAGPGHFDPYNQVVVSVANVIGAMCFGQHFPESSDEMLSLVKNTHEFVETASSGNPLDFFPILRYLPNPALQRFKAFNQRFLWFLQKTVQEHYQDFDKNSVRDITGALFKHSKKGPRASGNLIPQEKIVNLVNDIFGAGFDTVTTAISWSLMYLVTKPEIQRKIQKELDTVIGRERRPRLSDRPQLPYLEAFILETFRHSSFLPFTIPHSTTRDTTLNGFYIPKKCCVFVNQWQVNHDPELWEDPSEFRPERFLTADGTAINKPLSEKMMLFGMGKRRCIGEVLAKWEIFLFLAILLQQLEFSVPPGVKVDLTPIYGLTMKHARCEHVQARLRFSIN

[7] = system: Mus musculus; experiment: AUC (0 to 8 hrs) in mouse pharamcodynamic model at 10 mg/kg, po; assay type: ADME, organism-based; parameters: dose 10 mg/kg, time < 8 hr, route oral; settings: in vivo
[8] = system: A549; experiment: Antiproliferative activity against human A549 cells incubated for 72 hrs by [3H] thymidine incorporation assay; assay type: functional, cell-based
[9] = Clearance in dog at 0.2 mg/kg, iv and 0.2 mg/kg, po; assay type: ADME, organism-based, Canis lupus familiaris; settings: in vivo
[10] = system: Mus musculus; experiment: Inhibition of JAK2 in mouse pharamcodynamic model assessed as reduction in STAT5 phosphorylation at 10 mg/kg, po measured up to 18 hrs; assay type: functional
[11] = molecular target: T1, Tyrosine-protein kinase JAK3; experiment: Inhibition of recombinant JAK3 (unknown origin) using 5-FAM-KKKKEEIYFFFG-OH substrate and ATP incubated for 180 mins by […] method
[12] = AUC (0 to 8 hrs) in mouse pharamcodynamic model at 5 mg/kg, po; assay type: ADME, organism-based; parameters: dose 5 mg/kg, time < 8 hr, route oral; settings: in vivo
[13] = molecular target: Tyrosine-protein kinase JAK1 (Homo sapiens, UniProt P23458); experiment: Inhibition of recombinant JAK1 (unknown origin) using 5-FAM-KKKKEEIYFFFG-OH substrate and ATP incubated for 180 mins by […] method
[14] = system: BaF3; experiment: Antiproliferative activity against IL3-stimulated mouse BAF3 cells incubated for 72 hrs by [3H] thymidine incorporation assay; assay type: functional, cell-based
[15] = Volume of distribution at steady state in rat at 1 mg/kg, iv and 1 mg/kg, po; assay type: ADME, organism-based; settings: in vivo, read-out: Vdss
[16] = system: BaF3; experiment: Antiproliferative activity against mouse BAF3 cells expressing JAK2 V617F mutant incubated for 72 hrs by [3H] thymidine incorporation assay; assay type: functional, cell-based
[17] = Half in rat liver microsomes; assay type: ADME
[18] = Toxicity in micronucleus (unknown origin) assessed as induction of clastogenesis by micronucleus assay
[19] = Half in dog liver microsomes; assay type: ADME, Canis lupus familiaris
[20] = Volume of distribution at steady state in cynomolgus monkey at 1 mg/kg, iv and 1 mg/kg, po; assay type: ADME, organism-based, Macaca fascicularis; settings: in vivo, read-out: Vdss
[21] = system: Rattus norvegicus; experiment: Toxicity in rat assessed as drug tolerability at 15 mg/kg/day for 2 weeks; assay type: organism-based; settings: in vivo, 336 h
[22] = AUC (0 to 24 hrs) in dog; assay type: ADME, organism-based, Canis lupus familiaris; parameters: time < 24 hr; settings: in vivo

Tyrosine-protein kinase JAK1, sequence (P23458 whole entry): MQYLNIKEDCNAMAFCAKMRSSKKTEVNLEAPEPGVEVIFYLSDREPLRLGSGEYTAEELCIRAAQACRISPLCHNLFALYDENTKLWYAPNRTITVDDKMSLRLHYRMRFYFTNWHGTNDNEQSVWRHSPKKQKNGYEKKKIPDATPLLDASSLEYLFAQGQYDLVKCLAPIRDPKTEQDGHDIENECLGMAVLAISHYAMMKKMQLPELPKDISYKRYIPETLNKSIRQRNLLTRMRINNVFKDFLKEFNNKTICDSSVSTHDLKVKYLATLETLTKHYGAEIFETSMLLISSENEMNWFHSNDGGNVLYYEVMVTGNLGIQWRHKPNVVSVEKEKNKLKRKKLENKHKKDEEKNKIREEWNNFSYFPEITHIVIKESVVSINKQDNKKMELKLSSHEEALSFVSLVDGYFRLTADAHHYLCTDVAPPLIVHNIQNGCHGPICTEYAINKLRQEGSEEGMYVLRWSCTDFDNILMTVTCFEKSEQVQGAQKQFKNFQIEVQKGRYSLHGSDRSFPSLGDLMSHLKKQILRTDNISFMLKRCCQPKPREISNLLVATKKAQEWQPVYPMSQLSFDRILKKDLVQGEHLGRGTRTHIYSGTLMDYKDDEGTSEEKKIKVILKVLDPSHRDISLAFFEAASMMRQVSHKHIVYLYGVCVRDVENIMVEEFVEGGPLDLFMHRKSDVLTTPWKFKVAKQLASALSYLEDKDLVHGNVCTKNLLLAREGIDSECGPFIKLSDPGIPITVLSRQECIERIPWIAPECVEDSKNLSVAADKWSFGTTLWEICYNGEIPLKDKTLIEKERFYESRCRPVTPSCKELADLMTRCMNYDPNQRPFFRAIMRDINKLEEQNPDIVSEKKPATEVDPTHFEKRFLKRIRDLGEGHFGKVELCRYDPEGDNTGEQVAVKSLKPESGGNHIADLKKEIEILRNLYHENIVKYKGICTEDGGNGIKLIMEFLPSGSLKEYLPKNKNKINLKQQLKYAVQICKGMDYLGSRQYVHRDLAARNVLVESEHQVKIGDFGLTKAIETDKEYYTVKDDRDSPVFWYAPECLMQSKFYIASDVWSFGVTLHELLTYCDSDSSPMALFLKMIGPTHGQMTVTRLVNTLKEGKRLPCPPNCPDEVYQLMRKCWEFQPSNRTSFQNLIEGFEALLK

## CCn1c(C(=O)N(C2CC2)C2CC2)cc2c3c(ncn3C)c(Nc3cc(C)n(C)n3)nc21 [BMS-911543]
[1]
  half-life: 2.4 h
[2]
  Activity: inactive
[3]
  half-life: 2.2 h
[4]
  Kd: 360 nM
[5]
  Papp: 69.8 ×10⁻⁶ cm/s
[6]
  IC50: 1000 nM
[7]
  AUC: 41 µM·h
[8]
  IC50: 2400 nM
[9]
  clearance: 6.5 mL/min/kg
[10]
  inhibition in vivo at 10 mg/kg: 65%
[11]
  IC50: 360 nM
[12]
  AUC(0-t) at 8 h: 23 µM·h
[13]
  IC50: 75 nM
[14]
  IC50: 3500 nM
[15]
  Vd: 0.3 L/kg
[16]
  IC50: 70 nM
[17]
  half-life: 1.15 h
[18]
  Activity: Non-toxic
[19]
  half-life: 1.17 h
[20]
  Vd: 1.1 L/kg
[21]
  Activity: Non-toxic
[22]
  AUC(0-t) at 24 h: 610 µM·h

— ChEMBL document CHEMBL3621135 (ACS Med Chem Lett, 2015)
